Assay results as given in patent US20230041563A1, “N-(1,3,4-OXADIAZOL-2-YL)ARYLCARBOXAMIDES OR SALTS THEREOF, PREPARATION METHODS, HERBICIDAL COMPOSITIONS AND USES THEREOF” (priority 2018, published 2023).

What was measured:
Type in all cases: in vivo
[1] = system: Abutilon theophrasti; test: Weeding effect in post-emergence stage (greenhouse pot spray)
In short: (§1)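 Greenhouse post-emergence test: compounds were sprayed at 500, 250, 125, 60 and 15 g a.i./ha onto plants 2 weeks after sowing, and fresh weight control rates were averaged from three replicates 3 weeks later.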

[2] = system: Digitaria sanguinalis; test: as above
In short: as §1

[3] = system: Echinochloa crusgalli; test: as above
In short: as §1

[4] = system: Setaria viridis; test: as above; details: Table 3, dose 60 g a.i./ha
In short: as §1

[5] = system: Amaranthus retroflexus; test: as above
In short: as §1

[6] = system: Stellaria media; test: as above
In short: as §1

[7] = system: Abutilon theophrasti; test: Post-emergence control experiment of R configuration compound activity (weeds 4-5 leaf stage, 25 days)
Protocol: (§2) Experiment on weeding effect in post-emergence stage: after 3-4 weeks of sowing, the test plants were treated in the 1.5-2 leaf stage of the directly sowed rice Longyang 16, and the 4-5 leaf stage of weeds. After the application of the compounds of the present invention, the plants were cultured for 25 days in the greenhouse, and then the experimental results of the weeding were counted.

[8] = system: Digitaria sanguinalis; test: as above
Protocol: as §2

[9] = system: Green Setaria viridis; test: as above
Protocol: as §2

[10] = system: Leptochloa chinensis; test: as above
Protocol: as §2

[11] = system: weeds; test: Actual control effects and combined effects of mixtures of active ingredients (i) and (ii), stem-leaf treatment, Gowing method; details: stem-leaf treatment, 20 days
[12] = system: Rice (Longyang 16); test: Post-emergence control experiment of R configuration compound activity (directly sowed rice 1.5-2 leaf stage, 25 days)
Protocol: as §2
Longyang 16 is a representative and important long-grain fragrant rice in Northeast China. Long-grain fragrant rice is more sensitive to herbicides, especially to HPPD herbicides such as Mesotrione, Benzobicylon and the like, which are prone to causing phytotoxicity.

Cc1nnc(NC(=O)c2ccc(C(F)(F)F)c([S+](C)[O-])c2F)o1 (racemic) [Compound 1-2]
Abutilion theophrasti (activity level) ([1]; Table 2, dose 60 g a.i./ha): 4 (Level 4: growth control rate is greater than or equal to 60% and less than 85%)
Abutilion theophrasti (activity level) ([1]; Table 2, dose 125 g a.i./ha): 4 (Level 4: growth control rate is greater than or equal to 60% and less than 85%)
Abutilion theophrasti (activity level) ([1]; Table 2, dose 250 g a.i./ha): 4 (Level 4: growth control rate is greater than or equal to 60% and less than 85%)
Abutilion theophrasti (activity level) ([1]; Table 2, dose 500 g a.i./ha): 4 (Level 4: growth control rate is greater than or equal to 60% and less than 85%)
Abutilon theophrasti (activity level) ([1]; Table 3, dose 60 g a.i./ha): 4 (Level 4: growth control rate is greater than or equal to 60% and less than 85%)
Digitaria sanguinalis (activity level) ([2]; Table 2, dose 60 g a.i./ha): 3 (Level 3: growth control rate is greater than or equal to 40% and less than 60%)
Digitaria sanguinalis (activity level) ([2]; Table 2, dose 125 g a.i./ha): 3 (Level 3: growth control rate is greater than or equal to 40% and less than 60%)
Digitaria sanguinalis (activity level) ([2]; Table 2, dose 250 g a.i./ha): 4 (Level 4: growth control rate is greater than or equal to 60% and less than 85%)
Digitaria sanguinalis (activity level) ([2]; Table 2, dose 500 g a.i./ha): 4 (Level 4: growth control rate is greater than or equal to 60% and less than 85%)
Digitaria sanguinahs (activity level) ([2]; Table 3, dose 60 g a.i./ha): 3 (Level 3: growth control rate is greater than or equal to 40% and less than 60%)
Echinochloa crusgah (activity level) ([3]; Table 2, dose 60 g a.i./ha): 3 (Level 3: growth control rate is greater than or equal to 40% and less than 60%)
Echinochloa crusgah (activity level) ([3]; Table 2, dose 125 g a.i./ha): 4 (Level 4: growth control rate is greater than or equal to 60% and less than 85%)
Echinochloa crusgah (activity level) ([3]; Table 2, dose 250 g a.i./ha): 4 (Level 4: growth control rate is greater than or equal to 60% and less than 85%)
Echinochloa crusgah (activity level) ([3]; Table 2, dose 500 g a.i./ha): 4 (Level 4: growth control rate is greater than or equal to 60% and less than 85%)
Echinochloa crusgali (activity level) ([3]; Table 3, dose 60 g a.i./ha): 3 (Level 3: growth control rate is greater than or equal to 40% and less than 60%)
Setaria viridis (activity level) [4]: 3 (Level 3: growth control rate is greater than or equal to 40% and less than 60%)
Amaranthus retroflexus (activity level) ([5]; Table 2, dose 60 g a.i./ha): 4 (Level 4: growth control rate is greater than or equal to 60% and less than 85%)
Amaranthus retroflexus (activity level) ([5]; Table 2, dose 125 g a.i./ha): 4 (Level 4: growth control rate is greater than or equal to 60% and less than 85%)
Amaranthus retroflexus (activity level) ([5]; Table 2, dose 250 g a.i./ha): 4 (Level 4: growth control rate is greater than or equal to 60% and less than 85%)
Amaranthus retroflexus (activity level) ([5]; Table 2, dose 500 g a.i./ha): 4 (Level 4: growth control rate is greater than or equal to 60% and less than 85%)
Stellaria media (activity level) ([6]; Table 2, dose 60 g a.i./ha): 3 (Level 3: growth control rate is greater than or equal to 40% and less than 60%)
Stellaria media (activity level) ([6]; Table 2, dose 125 g a.i./ha): 3 (Level 3: growth control rate is greater than or equal to 40% and less than 60%)
Stellaria media (activity level) ([6]; Table 2, dose 250 g a.i./ha): 4 (Level 4: growth control rate is greater than or equal to 60% and less than 85%)
Stellaria media (activity level) ([6]; Table 2, dose 500 g a.i./ha): 4 (Level 4: growth control rate is greater than or equal to 60% and less than 85%)
Ablation theophrasti (30 g a.i./ha) inhibition rate ([7]; 30 g a.i./ha): 60%
Digitaria sanguinalis (30 g a.i./ha) inhibition rate ([8]; 30 g a.i./ha): 0%
Green Setaria viridis (60 g a.i./ha) inhibition rate ([9]; 60 g a.i./ha): 20%
Leptochloa chinensis (60 g a.i./ha) inhibition rate ([10]; 60 g a.i./ha): 0%
Control effect of (i) alone at corresponding dose ([11]; Cyperus difformis, (i) 1 g a.i./mu): 7.8%
Control effect of (i) alone at corresponding dose ([11]; Cyperus difformis, (i) 5 g a.i./mu): 36.5%
Control effect of (i) alone at corresponding dose ([11]; Digitaria sanguinalis, (i) 1 g a.i./mu): 18.2%
Control effect of (i) alone at corresponding dose ([11]; Digitaria sanguinalis, (i) 2 g a.i./mu): 40.6%
Control effect of (i) alone at corresponding dose ([11]; Digitaria sanguinalis, (i) 3 g a.i./mu): 65.3%
Control effect of (i) alone at corresponding dose ([11]; Echinochloa phyllopogon, (i) 1 g a.i./mu): 12.6%
Control effect of (i) alone at corresponding dose ([11]; Echinochloa phyllopogon, (i) 2 g a.i./mu): 26.8%
Control effect of (i) alone at corresponding dose ([11]; Echinochloa phyllopogon, (i) 3 g a.i./mu): 53.7%
Control effect of (i) alone at corresponding dose ([11]; Leptochloa chinensis, (i) 5 g a.i./mu): 6.5%
Control effect of (i) alone at corresponding dose ([11]; Leptochloa chinensis, (i) 15 g a.i./mu): 30.6%
Control effect of (i) alone at corresponding dose ([11]; Monochoria vaginalis, (i) 3 g a.i./mu): 7.8%
Control effect of (i) alone at corresponding dose ([11]; Monochoria vaginalis, (i) 5 g a.i./mu): 7.8%
Control effect of (i) alone at corresponding dose ([11]; Monochoria vaginalis, (i) 15 g a.i./mu): 30.9%
Control effect of (i) alone at corresponding dose ([11]; Sagittaria trifolia, (i) 1 g a.i./mu): 19.7%
Control effect of (i) alone at corresponding dose ([11]; Sagittaria trifolia, (i) 3 g a.i./mu): 50.3%

CCC[S@+]([O-])c1c(C(F)(F)F)ccc(C(=O)Nc2nnc(C)o2)c1F [1-8 (S-configuration)]
inhibition at 30 g/ha ([7]; Abutilon theophrasti, post-emergence, read-out: Ablation theophrasti (30 g a.i./ha) inhibition rate): 0%
inhibition at 30 g/ha ([8]; Digitaria sanguinalis, post-emergence, read-out: Digitaria sanguinalis (30 g a.i./ha) inhibition rate): 0%
inhibition at 30 g/ha ([9]; Setaria viridis, post-emergence, read-out: Green Setaria viridis (30 g a.i./ha) inhibition rate): 0%
inhibition at 60 g/ha ([9]; Setaria viridis, post-emergence, read-out: Green Setaria viridis (60 g a.i./ha) inhibition rate): 15%
inhibition at 60 g/ha ([10]; Dinebra chinensis, post-emergence, read-out: Leptochloa chinensis (60 g a.i./ha) inhibition rate): 0%
inhibition at 125 g/ha ([10]; Dinebra chinensis, post-emergence, read-out: Leptochloa chinensis (125 g a.i./ha) inhibition rate): 10%
activity against key weed Leptochloa chinensis / key weeds, in words ([10]; in vivo): lower activity
Rice (Longyang 16) (250 g a.i./ha) inhibition rate ([12]; 250 g a.i./ha): 15%
Rice (Longyang 16) (500 g a.i./ha) inhibition rate ([12]; 500 g a.i./ha): 25%
safety on rice (Longyang 16), in words ([12]; in vivo): not safe
